# Laboratory results from PMC11635519, “A High-Throughput Method for Screening Peptide Activators of G-Protein-Coupled Receptors” (ACS Omega, 2024).
# “Also recorded” adds a separate entry of the source. Where a SMILES comes first, the peptide text is derived from it.
# What was measured:
# [1] = Circular dichroism secondary structure determination; conditions: acetonitrile:PBS (1:2), 20 μM peptide, 0.1 cm cuvette, 10 accumulations; for Others (secondary structure content) / α-helix content / β-sheet content: Table S2, estimated by BeStSel from CD; for α-helical structure content: circular dichroism
# Procedure: We next performed circular dichroism (CD) analysis of the peptides in solution to determine the peptides’ secondary structure.
# Peptide secondary structure determination was carried out using a Jasco J-720 spectropolarimeter (Table S2). Lyophilized peptide powders were dissolved in acetonitrile:PBS (1:2), and CD spectra were read immediately. […] Samples were read using a 0.1 cm cuvette path length with 10 accumulations per run and 50 nm/min scanning speed. All spectra were background subtracted.
# hGLP1R = biological target: T1, hGLP1R (Homo sapiens, UniProt P43220); test: HTRF cAMP assay in GLP-1R-expressing HEK293 cells; type: cell-based; conditions: at higher concentrations, HEK293 stably expressing GLP-1R, 4 h at 37 °C
# T1 construct: expressed in transfected cells
# T1 sequence (P43220 24-463): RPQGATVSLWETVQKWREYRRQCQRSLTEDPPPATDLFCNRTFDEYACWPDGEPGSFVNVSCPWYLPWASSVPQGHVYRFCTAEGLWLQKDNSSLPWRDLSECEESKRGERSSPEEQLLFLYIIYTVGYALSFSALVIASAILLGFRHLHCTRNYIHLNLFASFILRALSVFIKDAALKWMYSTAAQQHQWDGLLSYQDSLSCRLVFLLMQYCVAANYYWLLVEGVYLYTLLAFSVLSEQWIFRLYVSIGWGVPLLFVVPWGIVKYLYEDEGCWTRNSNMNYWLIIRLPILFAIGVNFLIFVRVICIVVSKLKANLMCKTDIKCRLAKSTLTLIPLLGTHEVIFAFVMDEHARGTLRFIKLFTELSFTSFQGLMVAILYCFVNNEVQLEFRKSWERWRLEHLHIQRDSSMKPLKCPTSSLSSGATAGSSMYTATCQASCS
# Procedure: cAMP accumulation was measured using a HTRF cAMP-Gs Dynamic kit (Cisbio Bioassays, 62AM4PEB) according to the manufacturer’s instructions. Briefly, HEK293 cells expressing hGLP1R were trypsinized from subconfluent culture and seeded in a 96-well low-volume plate at a density of 2000 cells per well. […] After 4 h of incubation at 37 °C, cAMP d2 reagent and cAMP Eu-Cryptate antibodies were added to each well. After incubation at room temperature for 30 min in the dark, the plate was read using a Synergy 2 plate reader (BioTek) with excitation at 330 nm and emission at 620 and 665 nm. Data were used to calculate the EC50 value by fitting it to a nonlinear sigmoidal curve using GraphPad Prism 8.
# GLP-1R [2] = test: cAMP assay (TR-FRET) for validating GLP-1R activating peptides from screening; type: cell-based; conditions: cells stably expressing GLP-1R and CRE, transfected with peptide-expressing construct, 24 h + 24 h; TR-FRET cAMP-Gs Dynamic kit
# Excerpt: We next screened the GPI-AP-peptide library using FACS to discover novel GLP-1R activators. FACS is a widely used flow cytometric technique that isolates specific cell populations from mixtures of different cells. Briefly, when a potential peptide activator stimulates GLP-1R, there is an intracellular boost of cAMP levels. Subsequently, cAMP activates CREB, which binds to CRE and triggers transcription of the GFP/luciferase reporter gene. […] We chose the top three activating peptides found throughout the screening for further validation testing (PepA3, Pep1, and Pep2).
# Figure 3 Discovery of novel agonists of the GLP-1R using our screening platform. (A) Fluorescence-activated cell analysis and sorting of HEK293 cells transfected with the GLP-1R. […] (B) Confocal microscopy of HEK293 cells transfected with the GLP-1R treated with different peptides. […] The increase in the cyclic AMP concentration was quantified to evaluate the peptides’ activities.
# The stable cell lines were prepared by the infection of HEK293T cells with the pLJM1 vector with GLP-1R and CRE. The cells were selected with the hygromycin antibiotic. […] The culture medium was changed, and cells were grown for 24 h. The cAMP cell content was estimated using a homogeneous time-resolved fluorescence resonance energy transfer (TR-FRET) immunoassay using a cAMP-Gs Dynamic kit (PerkinElmer) following manufacturer’s protocol.
# GLP-1R [3] = test: FACS analysis of GFP-positive cells (CRE-GFP reporter), GLP-1R-expressing HEK293; type: cell-based; conditions: HEK293 cells transfected with GLP-1R
# Procedure: Cells were harvested by trypsin treatment and centrifuged at 500g for 5 min. The pellet was resuspended in ice-cold PBS and centrifuged again. The pellet was then resuspended at a concentration of 4 × 10^6 cells/mL in the PBS sorting buffer containing 100 Kunitz DNase I/mL, 10 μg/mL propidium iodide (Sigma), and 2% FBS. The sorting solution was also supplemented with either 10 μM forskolin, 100 μM 5,6-dichlorobenzimidazole riboside (DRB, Sigma), 10 μM forskolin (Sigma), and 100 μM DRB or DMSO, as a control. The cells were then sent through a 40 μm filter to remove large clumps and loaded into either a FACScan Flow Cytometer (BD Bioscience) for cell analysis or a FACSVantage SE cell sorter (BD Bioscience) for cell sorting. The cells with positive propidium iodide staining, i.e., the dead cells, were first eliminated from the analysis or sorting pool. For cell sorting, the desired population, either the EGFP brightest or least bright ones according to the purpose of experiments (see Results), was sorted into either 15 mL conical tubes or 96-well plates, which contained complete DMEM culture media.
# CCR2 = test: CRE-luciferase reporter assay of MCP1 fusion constructs (platform validation); type: cell-based; conditions: HEK293T stably expressing CCR2 and Gaussia luciferase reporter, luciferase induced by 10 μM forskolin
# Excerpt: Figure 2 Validation of the screening platform using the MCP1 peptide. (A) Genetic construction that encodes the fusion protein used to display library peptides on the cell surface. (B) Cell surface localization of the MCP1-GFP peptide and CCR2-mCherry receptor. MCP1-GFP peptide and CCR2-mCherry were localized at the cell surface when expressed separately. (C) MCP1-GFP peptide colocalized with CCR2-mCherry at the cell surface and distinct subcellular sites upon transient coexpression in HEK293T cells. (D) Evaluating the activity of different fusion proteins of the MCP1 peptide using a CRE-luciferase reporter assay. […] The activation of the different peptide variants was recorded through the inhibition of the luciferase expression induced by 10 μM forskolin.
# MCP1-GFP and CCR2-mCherry were localized at the cell surface when expressed separately (Figure 2B). […] We then evaluated the activity of the different MCP1-GFP constructions using a CRE-luciferase reporter assay. As a negative control, we used a construction where the MCP1 peptide is not fused to the signal or GPI-AP sequences.
# HEK293T cells stably expressing CCR2 and the reporter Gaussia Luciferase construct were trypsinized from subconfluent culture and seeded in a 96-well plate at a density of 5000 cells per well. […] Immediately after adding the reagent, samples were read using a luminometer with a 480 nm filter.
# CCR2-mCherry = test: FRET colocalization of MCP1-GFP with CCR2-mCherry at the cell surface; type: cell-based; conditions: MCP1-GFP and CCR2-mCherry; transient coexpression in HEK293 cells; FRET assays
# Procedure: To validate our screening platform, we chose the interaction between the chemokine MCP1 peptide and C–C chemokine receptor 2 (CCR2).[10],[11] We designed a structure that encodes a fusion protein to display the MCP1 peptide on the cell surface. The Ly6/neurotoxin (LYNX1) signal and GPI-AP sequences were present in this fusion protein’s N- and C-terminal regions, respectively. A Flag tag or GFP sequence was added upstream of the GPI-AP sequence. We also investigated the effect of various linkers between MCP1 and FLAG, as well as the FLAG and GPI-AP sequences (Figure 2A). All of the different MCP1-GFP constructions and CCR2 receptor fused with the mCherry fluorescent protein (CCR2-mCherry) were cloned into the pLJM1 nGFP lentiviral vector to evaluate their expression in human embryonic kidney 293 (HEK293) cells.
# Figure 2 Validation of the screening platform using the MCP1 peptide. (A) Genetic construction that encodes the fusion protein used to display library peptides on the cell surface. (B) Cell surface localization of the MCP1-GFP peptide and CCR2-mCherry receptor. MCP1-GFP peptide and CCR2-mCherry were localized at the cell surface when expressed separately. […]
# MCP1-GFP and CCR2-mCherry were localized at the cell surface when expressed separately (Figure 2B). […] We then evaluated the activity of the different MCP1-GFP constructions using a CRE-luciferase reporter assay. […]
# [4] = biological target: glucagon-like peptide-1 receptor (human) (UniProt P43220)
# Chain of glucagon-like peptide-1 receptor (human) (P43220 24-463): as above
Compound,Others (secondary structure content) [1],α-helix content [1],β-sheet content [1],α-helical structure content [1],efficacy for GLP-1R activation relative to GLP-1 (hGLP1R),stimulation of GLP-1R-expressing cells and intracellular cAMP increase (GLP-1R [2]),also measured
CC[C@H](C)[C@H](NC(=O)[C@H](C)NC(=O)[C@H](CC(=O)O)NC(=O)[C@H](Cc1ccccc1)NC(=O)[C@H](C)NC(=O)[C@@H]1CCCN1C(=O)[C@H](CCC(N)=O)NC(=O)[C@H](CS)NC(=O)[C@@H](NC(=O)[C@H](CCC(=O)O)NC(=O)[C@H](CCCNC(=N)N)NC(=O)[C@H](CC(C)C)NC(=O)CNC(=O)[C@H](CCC(=O)O)NC(=O)[C@H](CS)NC(=O)[C@@H](NC(=O)[C@@H](N)Cc1c[nH]cn1)[C@@H](C)CC)C(C)C)C(=O)N[C@@H](CC(=O)O)C(=O)N[C@@H](CCSC)C(=O)N[C@@H](C)C(=O)N[C@@H](Cc1c[nH]c2ccccc12)C(=O)N1CCC[C@H]1C(=O)N[C@@H](Cc1ccc(O)cc1)C(=O)N[C@@H](Cc1ccccc1)C(=O)N[C@@H](CC(C)C)C(=O)N[C@@H](CC(=O)O)C(=O)N[C@@H](CS)C(=O)N[C@@H](Cc1c[nH]cn1)C(=O)N[C@@H](CCCNC(=N)N)C(=O)N[C@@H](Cc1ccc(O)cc1)C(=O)N[C@@H](Cc1ccccc1)C(=O)N[C@H](C(=O)N[C@@H](CCCNC(=N)N)C(=O)N[C@@H](CCC(=O)O)C(=O)O)[C@@H](C)O [PepA] (H-HICEGLREVCQPAFDAIDMAWPYFLDCHRYFTRE-OH; N-terminus and C-terminus assumed),45.4%,46.1%,8.5%,30.1–46.1%,able to stimulate GLP-1R activation to a level comparable to that of GLP-1,,
C=C[C@@]1(C)CC(=O)[C@]2(O)[C@@]3(C)[C@@H](O)CCC(C)(C)[C@@H]3[C@H](O)[C@H](OC(C)=O)[C@@]2(C)O1 [forskolin],,,,,,,GFP-positive cells versus no treatment (GLP-1R [3]): more GFP-positive cells
ELAELVPRLFRVASKTHRDLLEVNLQNGILFV [Pep1],,,,,,Only PepA3 stimulated the GLP-1R-expressing HEK293 cells,
MCP1: chemokine MCP1 peptide displayed on the cell surface as fusion with LYNX1 signal and GPI-AP sequences,,,,,,,"activation of CCR2 receptor (inhibition of forskolin-induced luciferase expression) (CCR2; MCP1 fused to the signal sequence and GPI-AP (all constructions), 6 h after transfection): activated the receptor in all the constructions where the peptide was fused to the signal sequence and GPI-AP; also recorded: activated the CCR2 receptor in all the constructions where the peptide was fused to the signal and GPI-AP sequences; activation of CCR2 receptor (inhibition of forskolin-induced luciferase expression) (CCR2; negative control: MCP1 not fused to the signal or GPI-AP sequences): did not activate the CCR2 receptor when the peptide was not fused to the signal sequence and GPI-AP; colocalization with CCR2 at the cell surface (CCR2-mCherry): colocalization of MCP1 and CCR2 at the cell surface"
SGLAGHSVFLVPGLAAHPGSHSDQPPGVPSRR [Pep2],,,,,,Only PepA3 stimulated the GLP-1R-expressing HEK293 cells,
glucagon-like peptide-1 (ligand),,,,,,,"EC50 of the decrease of the FRET signal in the HTRF cAMP assay, GLP-1R expressing HEK293 cells [4]: 0.54 nM"

# More lines, main results first:
Others (secondary structure content) [1],α-helix content [1],β-sheet content [1],α-helical structure content [1],Compound,efficacy for GLP-1R activation relative to GLP-1 (hGLP1R),stimulation of GLP-1R-expressing cells and intracellular cAMP increase (GLP-1R [2]),also measured
56.5%,30.1%,13.3%,30.1–46.1%,CC[C@H](C)[C@H](N)C(=O)N[C@@H](CS)C(=O)N[C@@H](CCC(=O)O)C(=O)NCC(=O)N[C@@H](CC(C)C)C(=O)N[C@@H](CCCNC(=N)N)C(=O)N[C@@H](CCC(=O)O)C(=O)N[C@H](C(=O)N[C@@H](CS)C(=O)N[C@@H](CCC(N)=O)C(=O)N1CCC[C@H]1C(=O)N[C@@H](C)C(=O)N[C@@H](Cc1ccccc1)C(=O)N[C@@H](CC(=O)O)C(=O)N[C@@H](C)C(=O)N[C@H](C(=O)N[C@@H](CC(=O)O)C(=O)N[C@@H](CCSC)C(=O)N[C@@H](C)C(=O)N[C@@H](Cc1c[nH]c2ccccc12)C(=O)N1CCC[C@H]1C(=O)N[C@@H](Cc1ccc(O)cc1)C(=O)N[C@@H](Cc1ccccc1)C(=O)N[C@@H](CC(C)C)C(=O)N[C@@H](CC(=O)O)C(=O)N[C@@H](CS)C(=O)N[C@@H](Cc1c[nH]cn1)C(=O)N[C@@H](CCCNC(=N)N)C(=O)N[C@@H](Cc1ccc(O)cc1)C(=O)N[C@@H](Cc1ccccc1)C(=O)N[C@H](C(=O)N[C@@H](CCCNC(=N)N)C(=O)N[C@@H](CCC(=O)O)C(=O)O)[C@@H](C)O)[C@@H](C)CC)C(C)C [PepA2] (H-ICEGLREVCQPAFDAIDMAWPYFLDCHRYFTRE-OH; N-terminus and C-terminus assumed),able to stimulate GLP-1R activation to a level comparable to that of GLP-1,,
46.7%,42.9%,10.4%,30.1–46.1%,CC[C@H](C)[C@H](NC(=O)[C@H](C)NC(=O)[C@H](CC(=O)O)NC(=O)[C@H](Cc1ccccc1)NC(=O)[C@H](C)NC(=O)[C@@H]1CCCN1C(=O)[C@H](CCC(N)=O)NC(=O)[C@H](CS)NC(=O)[C@@H](NC(=O)[C@H](CCC(=O)O)NC(=O)[C@H](CCCNC(=N)N)NC(=O)[C@H](CC(C)C)NC(=O)CNC(=O)[C@H](CCC(=O)O)NC(=O)[C@@H](N)CS)C(C)C)C(=O)N[C@@H](CC(=O)O)C(=O)N[C@@H](CCSC)C(=O)N[C@@H](C)C(=O)N[C@@H](Cc1c[nH]c2ccccc12)C(=O)N1CCC[C@H]1C(=O)N[C@@H](Cc1ccc(O)cc1)C(=O)N[C@@H](Cc1ccccc1)C(=O)N[C@@H](CC(C)C)C(=O)N[C@@H](CC(=O)O)C(=O)N[C@@H](CS)C(=O)N[C@@H](Cc1c[nH]cn1)C(=O)N[C@@H](CCCNC(=N)N)C(=O)N[C@@H](Cc1ccc(O)cc1)C(=O)N[C@@H](Cc1ccccc1)C(=O)N[C@H](C(=O)N[C@@H](CCCNC(=N)N)C(=O)N[C@@H](CCC(=O)O)C(=O)O)[C@@H](C)O [PepA3] (H-CEGLREVCQPAFDAIDMAWPYFLDCHRYFTRE-OH; N-terminus and C-terminus assumed),able to stimulate GLP-1R activation to a level comparable to that of GLP-1,stimulated the GLP-1R-expressing HEK293 cells and increased the cAMP intracellular levels,
